One series deals with hNaV1.1 (Homo sapiens, UniProt P35498). Kind of series: Two-electrode voltage-clamp on Xenopus laevis oocytes expressing NaV1.1. Background: Two-electrode voltage clamp holds a large cell at a set potential and records current.
The target of another series is rNaV1.4 (Rattus norvegicus, UniProt P15390). Kind of series: Two-electrode voltage-clamp on Xenopus laevis oocytes expressing NaV1.4. The note with it: for inhibition at 100 µM: read-out: Maximum % inhibition NaV1.4, peptide at 100 μM.
A further series concerns the target hNaV1.5 (Homo sapiens, UniProt Q14524). Kind of series: Two-electrode voltage-clamp on Xenopus laevis oocytes expressing NaV1.5. The note with it: for inhibition at 100 µM: read-out: Maximum % inhibition NaV1.5.
The next series deals with mNaV1.6 (Mus musculus, UniProt Q9WTU3). Kind of series: Two-electrode voltage-clamp on Xenopus laevis oocytes expressing NaV1.6. The note with it: for inhibition at 100 µM: read-out: Maximum % inhibition NaV1.6, peptide at 100 μM.
Another series concerns the target rNaV1.7 (Rattus norvegicus, UniProt O08562). As to the kind of experiment: Two-electrode voltage-clamp on Xenopus laevis oocytes expressing NaV1.7.
In the next series the target is rNaV1.2 (Rattus norvegicus, UniProt P04775). As to the kind of experiment: Two-electrode voltage-clamp on Xenopus laevis oocytes expressing NaV1.2. As to conditions: for inhibition at 100 µM: read-out: Maximum % inhibition NaV1.2, peptide at 100 μM.
Another series has as its target rNaV1.3 (Rattus norvegicus, UniProt P08104). As to the kind of experiment: Two-electrode voltage-clamp on Xenopus laevis oocytes expressing NaV1.3.
The target in the next series is rNaV1.8 (Rattus norvegicus, UniProt Q62968). As to the kind of experiment: Two-electrode voltage-clamp on Xenopus laevis oocytes expressing NaV1.8. As to conditions: for inhibition at 100 µM: read-out: Maximum % inhibition NaV1.8.
Chain of rNaV1.8 (Q62968 whole entry): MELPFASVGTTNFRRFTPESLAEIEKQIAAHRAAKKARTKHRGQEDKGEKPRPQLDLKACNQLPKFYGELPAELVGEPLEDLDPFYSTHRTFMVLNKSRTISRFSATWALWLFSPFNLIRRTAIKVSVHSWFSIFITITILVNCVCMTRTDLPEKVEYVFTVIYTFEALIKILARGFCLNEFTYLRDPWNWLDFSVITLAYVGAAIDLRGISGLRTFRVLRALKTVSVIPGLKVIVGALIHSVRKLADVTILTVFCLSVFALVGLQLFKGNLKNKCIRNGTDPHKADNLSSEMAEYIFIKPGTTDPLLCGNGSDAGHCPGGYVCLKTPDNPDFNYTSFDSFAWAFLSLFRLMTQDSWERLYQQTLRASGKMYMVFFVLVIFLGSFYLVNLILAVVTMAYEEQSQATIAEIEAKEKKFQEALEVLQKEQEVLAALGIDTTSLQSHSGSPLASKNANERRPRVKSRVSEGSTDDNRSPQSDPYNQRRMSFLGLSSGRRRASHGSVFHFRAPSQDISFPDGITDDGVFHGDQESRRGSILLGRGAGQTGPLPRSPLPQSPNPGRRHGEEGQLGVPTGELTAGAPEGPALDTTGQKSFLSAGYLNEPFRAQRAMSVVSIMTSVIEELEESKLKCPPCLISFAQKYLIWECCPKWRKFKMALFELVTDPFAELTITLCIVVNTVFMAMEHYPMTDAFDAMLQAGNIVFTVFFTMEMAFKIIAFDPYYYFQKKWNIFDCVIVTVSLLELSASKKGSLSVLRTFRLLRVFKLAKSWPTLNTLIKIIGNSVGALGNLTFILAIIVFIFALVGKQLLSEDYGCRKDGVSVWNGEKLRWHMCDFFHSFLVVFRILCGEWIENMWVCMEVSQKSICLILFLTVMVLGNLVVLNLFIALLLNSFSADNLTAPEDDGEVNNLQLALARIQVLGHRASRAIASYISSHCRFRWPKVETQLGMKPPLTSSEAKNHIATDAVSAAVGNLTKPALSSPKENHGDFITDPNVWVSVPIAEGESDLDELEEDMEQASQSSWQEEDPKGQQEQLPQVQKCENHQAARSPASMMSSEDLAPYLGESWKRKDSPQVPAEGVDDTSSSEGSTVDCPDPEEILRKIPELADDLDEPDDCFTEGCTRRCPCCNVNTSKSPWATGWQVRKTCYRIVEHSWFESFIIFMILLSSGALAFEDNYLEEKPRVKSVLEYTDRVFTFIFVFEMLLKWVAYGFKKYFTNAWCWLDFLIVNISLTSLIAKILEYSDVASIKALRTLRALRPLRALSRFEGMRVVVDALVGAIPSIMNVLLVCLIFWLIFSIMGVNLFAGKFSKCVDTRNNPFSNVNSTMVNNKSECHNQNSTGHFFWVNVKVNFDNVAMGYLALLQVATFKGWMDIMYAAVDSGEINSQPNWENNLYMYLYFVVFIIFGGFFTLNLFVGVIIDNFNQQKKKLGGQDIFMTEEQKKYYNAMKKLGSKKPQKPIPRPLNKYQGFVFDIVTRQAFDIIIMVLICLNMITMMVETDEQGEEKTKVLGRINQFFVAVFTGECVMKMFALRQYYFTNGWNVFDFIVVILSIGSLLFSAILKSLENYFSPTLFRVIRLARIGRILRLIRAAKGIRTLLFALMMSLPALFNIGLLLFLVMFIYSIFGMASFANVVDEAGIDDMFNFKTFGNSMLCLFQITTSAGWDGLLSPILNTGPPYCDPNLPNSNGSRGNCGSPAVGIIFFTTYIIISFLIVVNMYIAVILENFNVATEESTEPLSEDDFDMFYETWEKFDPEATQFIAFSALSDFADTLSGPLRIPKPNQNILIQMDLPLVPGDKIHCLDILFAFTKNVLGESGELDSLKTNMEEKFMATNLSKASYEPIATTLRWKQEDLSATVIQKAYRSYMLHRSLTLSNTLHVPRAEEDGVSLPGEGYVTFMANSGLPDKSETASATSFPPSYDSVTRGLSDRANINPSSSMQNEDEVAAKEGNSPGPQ
Series [1] has as its system NaV1.2, NaV1.4, NaV1.5 and NaV1.6. As to conditions: 100 μM.

This note sets out measurements from paper PMC9116130 (Biochemical pharmacology, 2020).

Where two headings read alike, the source gives them in different places. Where a SMILES comes first, the peptide text is derived from it. Bridges are numbered along the chain shown (N, C = ends). Some results are limits rather than exact numbers.

Broadly, the IC50 is the midpoint of a concentration-inhibition curve. The term inhibition denotes how much of the control response was suppressed.

Chain of rNaV1.3 (P08104 whole entry): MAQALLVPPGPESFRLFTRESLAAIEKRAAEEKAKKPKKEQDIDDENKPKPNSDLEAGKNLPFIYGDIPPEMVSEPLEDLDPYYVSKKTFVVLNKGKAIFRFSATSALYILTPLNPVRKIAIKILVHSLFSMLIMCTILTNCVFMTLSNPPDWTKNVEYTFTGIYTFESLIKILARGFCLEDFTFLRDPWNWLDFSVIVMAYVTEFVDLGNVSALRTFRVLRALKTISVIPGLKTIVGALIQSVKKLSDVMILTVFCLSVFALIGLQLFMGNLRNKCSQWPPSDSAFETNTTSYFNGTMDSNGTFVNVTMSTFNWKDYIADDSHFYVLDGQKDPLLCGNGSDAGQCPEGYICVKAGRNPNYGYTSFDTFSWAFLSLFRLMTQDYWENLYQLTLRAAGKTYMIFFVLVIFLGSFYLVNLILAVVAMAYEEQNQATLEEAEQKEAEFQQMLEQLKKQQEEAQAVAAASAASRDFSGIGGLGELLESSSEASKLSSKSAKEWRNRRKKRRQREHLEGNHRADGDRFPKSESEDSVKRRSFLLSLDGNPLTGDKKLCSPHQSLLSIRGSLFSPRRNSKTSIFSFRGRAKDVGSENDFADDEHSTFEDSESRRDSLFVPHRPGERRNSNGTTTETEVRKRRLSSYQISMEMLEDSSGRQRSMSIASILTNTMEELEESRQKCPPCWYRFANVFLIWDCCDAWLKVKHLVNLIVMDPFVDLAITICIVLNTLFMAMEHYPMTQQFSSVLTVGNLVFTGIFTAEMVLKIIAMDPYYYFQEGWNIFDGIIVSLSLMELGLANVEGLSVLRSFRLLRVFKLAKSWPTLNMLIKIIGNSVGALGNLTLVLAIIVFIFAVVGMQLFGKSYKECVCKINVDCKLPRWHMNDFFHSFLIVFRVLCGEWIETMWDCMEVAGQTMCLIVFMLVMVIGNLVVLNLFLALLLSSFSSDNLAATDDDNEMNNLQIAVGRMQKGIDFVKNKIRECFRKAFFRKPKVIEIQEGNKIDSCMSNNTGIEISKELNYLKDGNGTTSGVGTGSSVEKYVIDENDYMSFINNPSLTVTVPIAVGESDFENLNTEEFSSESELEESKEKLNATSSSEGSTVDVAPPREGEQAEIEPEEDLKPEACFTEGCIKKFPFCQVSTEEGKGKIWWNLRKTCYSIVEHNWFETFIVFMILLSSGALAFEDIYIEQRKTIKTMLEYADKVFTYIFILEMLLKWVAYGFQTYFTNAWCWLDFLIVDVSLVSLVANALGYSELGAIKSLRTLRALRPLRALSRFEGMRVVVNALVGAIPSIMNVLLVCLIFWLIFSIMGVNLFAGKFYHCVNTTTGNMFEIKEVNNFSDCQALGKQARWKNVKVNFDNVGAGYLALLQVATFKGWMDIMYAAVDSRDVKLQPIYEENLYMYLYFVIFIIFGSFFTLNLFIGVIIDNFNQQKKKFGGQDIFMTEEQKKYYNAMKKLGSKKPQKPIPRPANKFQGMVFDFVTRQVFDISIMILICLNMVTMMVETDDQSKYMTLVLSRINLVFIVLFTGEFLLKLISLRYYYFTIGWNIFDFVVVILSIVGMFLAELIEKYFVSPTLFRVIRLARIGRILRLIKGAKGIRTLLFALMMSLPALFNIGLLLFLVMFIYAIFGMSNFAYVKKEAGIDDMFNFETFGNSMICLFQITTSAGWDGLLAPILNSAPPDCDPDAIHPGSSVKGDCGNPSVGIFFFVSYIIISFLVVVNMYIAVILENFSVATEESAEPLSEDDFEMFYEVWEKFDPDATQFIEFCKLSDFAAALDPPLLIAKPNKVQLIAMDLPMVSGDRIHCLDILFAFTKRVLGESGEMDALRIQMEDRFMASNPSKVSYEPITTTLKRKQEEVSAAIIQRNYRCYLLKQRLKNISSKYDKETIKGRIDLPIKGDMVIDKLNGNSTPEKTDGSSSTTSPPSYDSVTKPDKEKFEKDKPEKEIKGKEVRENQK
Chain of rNaV1.3 (Q00954 19-218 partner): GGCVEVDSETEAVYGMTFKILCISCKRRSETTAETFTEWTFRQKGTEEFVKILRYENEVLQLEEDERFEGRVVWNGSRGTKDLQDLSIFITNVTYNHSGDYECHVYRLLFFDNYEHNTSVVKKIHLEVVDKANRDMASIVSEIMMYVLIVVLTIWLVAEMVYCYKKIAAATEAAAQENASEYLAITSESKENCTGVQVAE

Take `C[C@@H]1NC(=O)[C@H](Cc2c[nH]c3ccccc23)NC(=O)[C@H](CCCNC(=N)N)NC(=O)[C@H](CCCNC(=N)N)NC(=O)[C@@H](N)CSSC[C@@H](C(N)=O)NC(=O)[C@H](CCCNC(=N)N)NC(=O)[C@H](CC(N)=O)NC(=O)[C@H](Cc2c[nH]c3ccccc23)NC(=O)[C@H](CCCNC(=N)N)NC1=O` [PnCS1, CRRWARWNRC ^*] (H-CRRWARWNRC-NH2; disulfide 1-10): the concentration for half-maximal inhibition (IC50) on hNaV1.1 came out at 0.8 ± 0.3 µM; against rNaV1.4, 0.6 ± 0.3 µM; against hNaV1.5 it was 2.8 ± 0.5 µM; against mNaV1.6 it was 0.7 ± 0.3 µM; on rNaV1.7 it was 0.9 ± 0.2 µM; against rNaV1.2 it was 1 ± 0.3 µM. Also, the results for the IC50 at rNaV1.3 and at rNaV1.8 were 1.1 ± 0.4 µM and above 100 µM, respectively. Moreover, the inhibition at 100 µM on rNaV1.4 is 94%; on hNaV1.5, 94%; at mNaV1.6, 96%; on rNaV1.2, 97%; at rNaV1.8, 0%.

As to `C[C@@H]1NC(=O)[C@H](Cc2c[nH]c3ccccc23)NC(=O)[C@H](CCCNC(=N)N)NC(=O)[C@H](CCCNC(=N)N)NC(=O)[C@@H](N)CSSC[C@@H](C(N)=O)NC(=O)[C@H](CCCNC(=N)N)NC(=O)[C@H](CC(N)=O)NC(=O)[C@H](Cc2c[nH]c3ccccc23)NC(=O)[C@H](CCC(=O)O)NC1=O` [PnCS1[R6E], CRRWAEWNRC ^*] (H-CRRWAEWNRC-NH2; disulfide 1-10), the IC50 was above 100 µM on hNaV1.1; above 100 µM against rNaV1.4; above 100 µM against hNaV1.5; above 100 µM at mNaV1.6; above 100 µM at mNaV1.6 (read-out: IC50 NaV1.6 (Table 4), n > 5, ±SD); above 100 µM against rNaV1.7. Moreover, the IC50 against rNaV1.2, on rNaV1.3 and at rNaV1.8 was above 100 µM in each case. In addition, the inhibition at 100 µM on rNaV1.4 is 0%; on hNaV1.5, 19%; at mNaV1.6, 41%; on rNaV1.2, 49%; on rNaV1.8, 0%.

For the molecule `C[C@@H]1NC(=O)[C@H](CCCCN)NC(=O)[C@H](CCCNC(=N)N)NC(=O)[C@H](CCCNC(=N)N)NC(=O)[C@@H](N)CSSC[C@@H](C(N)=O)NC(=O)[C@H](CCCNC(=N)N)NC(=O)[C@H](CC(N)=O)NC(=O)[C@H](Cc2c[nH]c3ccccc23)NC(=O)[C@H](CCCNC(=N)N)NC1=O` [PnCS1[W4K], CRRKARWNRC ^*] (H-CRRKARWNRC-NH2; disulfide 1-10), the IC50 at hNaV1.1 is 0.4 ± 0.2 µM; against rNaV1.4, 0.7 ± 0.4 µM; against hNaV1.5 it was 2.7 ± 0.5 µM; against mNaV1.6, 0.7 ± 0.4 µM; on rNaV1.7 it was 7.4 ± 0.5 µM; on rNaV1.2 it was 0.5 ± 0.4 µM. Besides, the IC50 at rNaV1.3 is 1.3 ± 0.4 µM; against rNaV1.8, above 100 µM. In addition, the inhibition at 100 µM on rNaV1.4 was 94%; at hNaV1.5, 89%; at mNaV1.6, 92%; at rNaV1.2, 75%; at rNaV1.8, 0%.

Regarding `C[C@@H]1NC(=O)[C@H](Cc2ccc(O)cc2)NC(=O)[C@H](CCCNC(=N)N)NC(=O)[C@H](CCCNC(=N)N)NC(=O)[C@@H](N)CSSC[C@@H](C(N)=O)NC(=O)[C@H](CCCNC(=N)N)NC(=O)[C@H](CC(N)=O)NC(=O)[C@H](Cc2c[nH]c3ccccc23)NC(=O)[C@H](CCCNC(=N)N)NC1=O` [PnCS1[W4Y], CRRYARWNRC ^*] (H-CRRYARWNRC-NH2; disulfide 1-10), the IC50 against rNaV1.4, against hNaV1.5, on mNaV1.6, against rNaV1.2 and against rNaV1.8 was above 100 µM throughout. The inhibition at 100 µM was 33% at rNaV1.4; 43% at hNaV1.5; 42% at mNaV1.6; 39% on rNaV1.2; 0% on rNaV1.8. The “% inhibition, range across NaV1.2, NaV1.4, NaV1.5 and NaV1.6” value in series [1] is reported as 33–43%.

`C[C@@H]1NC(=O)[C@H](Cc2c[nH]c3ccccc23)NC(=O)[C@H](CCCNC(=N)N)NC(=O)[C@H](CCCNC(=N)N)NC(=O)[C@@H](N)CSSC[C@@H](C(N)=O)NC(=O)[C@H](CCCNC(=N)N)NC(=O)[C@H](CC(N)=O)NC(=O)[C@H](CCC(=O)O)NC(=O)[C@H](CCCNC(=N)N)NC1=O` [PnCS1[W7E], CRRWARENRC ^*] (H-CRRWARENRC-NH2; disulfide 1-10): the half-inhibitory concentration (IC50) against rNaV1.4, against hNaV1.5, against mNaV1.6, against rNaV1.2 and against rNaV1.8 was above 100 µM throughout. The inhibition at 100 µM amounted to 42% at rNaV1.4; 33% on hNaV1.5; 27% on mNaV1.6; 21% on rNaV1.2; 0% on rNaV1.8.

Take `C[C@@H]1NC(=O)[C@H](Cc2c[nH]c3ccccc23)NC(=O)[C@H](CCCNC(=N)N)NC(=O)[C@H](CCCNC(=N)N)NC(=O)[C@@H](N)CSSC[C@@H](C(N)=O)NC(=O)[C@H](CCCNC(=N)N)NC(=O)[C@H](CCCCN)NC(=O)[C@H](Cc2c[nH]c3ccccc23)NC(=O)[C@H](CCCNC(=N)N)NC1=O` [PnCS1[N8K], CRRWARWKRC ^*] (H-CRRWARWKRC-NH2; disulfide 1-10): the IC50 at rNaV1.4 is 0.9 ± 0.3 µM; at hNaV1.5, 2.8 ± 0.5 µM; against mNaV1.6, 0.5 ± 0.2 µM; on rNaV1.2, 4.4 ± 0.8 µM; on rNaV1.8 it was above 100 µM. Also, at rNaV1.4 (peptide at 100 μM, 100 µM), the “Maximum % inhibition NaV1.4” value is 96%. Moreover, the inhibition at 100 µM at rNaV1.4 is above 95%; at hNaV1.5 it was 86%; on mNaV1.6 it was 92%; on rNaV1.2, 81%; at rNaV1.8, 0%.

For `C[C@@H]1NC(=O)[C@H](Cc2c[nH]c3ccccc23)NC(=O)[C@H](C)NC(=O)[C@H](CCCNC(=N)N)NC(=O)[C@@H](N)CSSC[C@@H](C(N)=O)NC(=O)[C@H](CCCNC(=N)N)NC(=O)[C@H](CC(N)=O)NC(=O)[C@H](Cc2c[nH]c3ccccc23)NC(=O)[C@H](CCCNC(=N)N)NC1=O` [PnCS1[R3A], CRAWARWNRC ^*] (H-CRAWARWNRC-NH2; disulfide 1-10), the IC50 against rNaV1.4 is 1.6 ± 0.5 µM; at hNaV1.5 it was above 100 µM; on mNaV1.6, 1.9 ± 0.4 µM; against rNaV1.2 it was 1.8 ± 0.3 µM; against rNaV1.8 it was above 100 µM. The inhibition at 100 µM is 89% at rNaV1.4; 51% at hNaV1.5; 87% on mNaV1.6; 86% on rNaV1.2; 0% on rNaV1.8.

Consider `C[C@@H]1NC(=O)[C@H](Cc2c[nH]c3ccccc23)NC(=O)[C@H](CCCNC(=N)N)NC(=O)[C@H](CCCNC(=N)N)NC(=O)[C@@H](N)CSSC[C@@H](C(N)=O)NC(=O)[C@H](CCC(=O)O)NC(=O)[C@H](CC(N)=O)NC(=O)[C@H](Cc2c[nH]c3ccccc23)NC(=O)[C@H](CCCNC(=N)N)NC1=O` [PnCS1[R9E], CRRWARWNEC ^*] (H-CRRWARWNEC-NH2; disulfide 1-10), for which the IC50 against rNaV1.4, against hNaV1.5, against mNaV1.6, against rNaV1.2 and at rNaV1.8 was above 100 µM throughout. Further, the inhibition at 100 µM turned out to be 0% on rNaV1.4; 40% at hNaV1.5; 11% at mNaV1.6; 49% at rNaV1.2; 0% on rNaV1.8.
